Patent US10993951B2, “Fosfomycin formulation for parenteral administration” (priority 2016, dated 2021)
≈ marks a conversion by molar mass, not a printed value. Read-outs that look alike come from different tables or passages of the source.

Assays:
Type in all cases: cell-based
[1] = test system: Staphylococcus aureus ATTC 33592; assay: MIC by tube dilution in microtiter plates, stored fosfomycin solution; conditions: read-out: minimal inhibitory concentration (MIC)
[2] = test system: tested bacteria such as Staphylococcus and Escherichia; assay: Stability studies: antimicrobial activity kept on storage; conditions: aqueous solution with an acid; after repeated autoclaving at 125° C. and months of storage
Excerpt: (§1) The objective of the present investigation was to find out whether the antimicrobial activity of fosfomycin with a pH suitable for intravenous administration is maintained in a solvent suitable for intravenous use. For this, fosfomycin disodium (14.5 mmol sodium/g) and succinic acid were used to adjust the pH (0.025 grams of succinic acid per gram of fosfomycin).
(§2) A stock solution of 4 g of fosfomycin disodium and succinic acid (0.025 grams of succinic acid per gram of fosfomycin, corresponding to about 3 g of fosfomycin) in 10 ml distilled water was prepared and divided into 5 cryotubes at 2 ml each, and the solution was exposed at different temperatures as follows:
(§3) Aliquots of 2 ml of the sample were stored at −80° C., at refrigerator temperature (2-8° C.), at room temperature (20-25° C.), and at 45-65° C. until the test end. Another 2 ml of the stock solution were stored at refrigerator temperature (2-8° C.) and autoclaved before the tests at 125° C. for 30 minutes. After that, all samples were tested for their antimicrobioal activity.
To determine the antimicrobial activity of fosfomycin, the minimal inhibitory concentration (MIC) of the 4 mentioned bacteria strains was determined by a tube dilution method in microtiter plates using Mueller-Hinton broth. For the inoculation of the microtiter plates, the inoculum was adjusted to 1.5×104 germs/ml. […]

[3] = test system: Staphylococcus hominis AG 1115; assay: MIC by tube dilution in microtiter plates, stored fosfomycin solution; conditions: read-out: minimal inhibitory concentration (MIC)
[4] = test system: Staphylococcus aureus ATTC 49775; assay: as above; conditions: read-out: minimal inhibitory concentration (MIC)
Escherichia coli AG 1215 = assay: as above; conditions: read-out: minimal inhibitory concentration (MIC)
Excerpt: as §1, §2, §3
(§4) To determine the antimicrobial activity of fosfomycin, the minimal inhibitory concentration (MIC) of the 4 mentioned bacteria strains was determined by a tube dilution method in microtiter plates using Mueller-Hinton broth. For the inoculation of the microtiter plates, the inoculum was adjusted to 1.5×104 germs/ml. The evaluation was made after 24 hours of incubation at 37° C.
(§5) Samples were taken, starting with 2,000 μg/ml test substance, diluted by a factor 2. Serial dilutions of 2,000 μg/ml to […] were prepared.

[5] = test system: Staphylococcus aureus ATTC 49775; assay: as above; conditions: read-out: minimal inhibitory concentration (MIC); remark: listed apart in the source
Excerpt: as §1, §2, §3, §4, §5

MIC ([1]; ATTC33592, 0 h, storage temp. 4-8 °C, storage period 0 days): 15.6 µg/mL (≈ 113 µM)
MIC ([1]; ATTC33592, 456 h, storage temp. 4-8 °C, storage period 19 days): 7.8 µg/mL (≈ 56.5 µM)
MIC ([1]; ATTC33592, storage temp. 4-8 °C, storage period 31 days): 3.9 µg/mL (≈ 28.2 µM)
MIC ([3]; AG1115, 648 h, storage temp. 4-8 °C, storage period 27 days): 15.6 µg/mL (≈ 113 µM)
MIC ([3]; AG1115, storage temp. 4-8 °C, storage period 64 days): 15.6 µg/mL (≈ 113 µM)
MIC ([3]; AG1115, storage temp. 4-8 °C, storage period 92 days): 15.6 µg/mL (≈ 113 µM)
MIC ([4]; ATTC49775, 0 h, storage temp. 4-8 °C, storage period 0 days): 7.8 µg/mL (≈ 56.5 µM)
MIC ([4]; ATTC49775, 456 h, storage temp. 4-8 °C, storage period 19 days): 3.9 µg/mL (≈ 28.2 µM)
MIC ([4]; ATTC49775, storage temp. 4-8 °C, storage period 31 days): 3.9 µg/mL (≈ 28.2 µM)
MIC (Escherichia coli AG 1215; AG1215, 0 h, storage temp. 4-8 °C, storage period 0 days): 62.5 µg/mL (≈ 453 µM)
MIC (Escherichia coli AG 1215; AG1215, 0 h, storage temp. 20-25 °C, storage period 0 days): 250 µg/mL (≈ 1810 µM)
MIC (Escherichia coli AG 1215; AG1215, 0 h, storage temp. 45-65 °C, storage period 0 days): 62.5 µg/mL (≈ 453 µM)
MIC (Escherichia coli AG 1215; AG1215, 0 h, storage temp. −80 °C, storage period 0 days): 62.5 µg/mL (≈ 453 µM)
MIC (Escherichia coli AG 1215; AG1215, 125 °C (refrigerator storage, autoclaved 30 minutes before tests), storage period 0 days): 125 µg/mL (≈ 905 µM)
MIC (Escherichia coli AG 1215; AG1215, 125 °C (refrigerator storage, autoclaved 30 minutes before tests), storage period 19 days): 125 µg/mL (≈ 905 µM)
MIC (Escherichia coli AG 1215; AG1215, 125 °C (refrigerator storage, autoclaved 30 minutes before tests), storage period 27 days): 62.5 µg/mL (≈ 453 µM)
MIC (Escherichia coli AG 1215; AG1215, 125 °C (refrigerator storage, autoclaved 30 minutes before tests), storage period 59 days): 31.2 µg/mL (≈ 226 µM)
MIC (Escherichia coli AG 1215; AG1215, 125 °C (refrigerator storage, autoclaved 30 minutes before tests), storage period 64 days): 62.5 µg/mL (≈ 453 µM)
MIC (Escherichia coli AG 1215; AG1215, 125 °C (refrigerator storage, autoclaved 30 minutes before tests), storage period 92 days): 125 µg/mL (≈ 905 µM)
MIC (Escherichia coli AG 1215; AG1215, 456 h, storage temp. 4-8 °C, storage period 19 days): 62.5 µg/mL (≈ 453 µM)
MIC (Escherichia coli AG 1215; AG1215, 456 h, storage temp. 20-25 °C, storage period 19 days): 125 µg/mL (≈ 905 µM)
MIC (Escherichia coli AG 1215; AG1215, 456 h, storage temp. 45-65 °C, storage period 19 days): 250 µg/mL (≈ 1810 µM)
MIC (Escherichia coli AG 1215; AG1215, 456 h, storage temp. −80 °C, storage period 19 days): 125 µg/mL (≈ 905 µM)
MIC (Escherichia coli AG 1215; AG1215, 648 h, storage temp. 20-25 °C, storage period 27 days): 31.2 µg/mL (≈ 226 µM)
MIC (Escherichia coli AG 1215; AG1215, 648 h, storage temp. 45-65 °C, storage period 27 days): 31.2 µg/mL (≈ 226 µM)
MIC (Escherichia coli AG 1215; AG1215, 648 h, storage temp. −80 °C, storage period 27 days): 62.5 µg/mL (≈ 453 µM)
MIC (Escherichia coli AG 1215; AG1215, storage temp. 4-8 °C, storage period 92 days): 62.5 µg/mL (≈ 453 µM)
MIC (Escherichia coli AG 1215; AG1215, storage temp. 20-25 °C, storage period 59 days): 31.2 µg/mL (≈ 226 µM)
MIC (Escherichia coli AG 1215; AG1215, storage temp. 20-25 °C, storage period 64 days): 31.2 µg/mL (≈ 226 µM)
MIC (Escherichia coli AG 1215; AG1215, storage temp. 20-25 °C, storage period 92 days): 125 µg/mL (≈ 905 µM)
MIC (Escherichia coli AG 1215; AG1215, storage temp. 45-65 °C, storage period 59 days): 62.5 µg/mL (≈ 453 µM)
MIC (Escherichia coli AG 1215; AG1215, storage temp. 45-65 °C, storage period 64 days): 62.5 µg/mL (≈ 453 µM)
MIC (Escherichia coli AG 1215; AG1215, storage temp. 45-65 °C, storage period 92 days): 125 µg/mL (≈ 905 µM)
MIC (Escherichia coli AG 1215; AG1215, storage temp. −80 °C, storage period 59 days): 15.6 µg/mL (≈ 113 µM)
MIC (Escherichia coli AG 1215; AG1215, storage temp. −80 °C, storage period 64 days): 62.5 µg/mL (≈ 453 µM)
MIC (Escherichia coli AG 1215; AG1215, storage temp. −80 °C, storage period 92 days): 62.5 µg/mL (≈ 453 µM)
MIC ([5]; ATTC49775, 0 h, storage temp. 20-25 °C, storage period 0 days): 3.9 µg/mL (≈ 28.2 µM)
MIC ([5]; ATTC49775, 0 h, storage temp. 45-65 °C, storage period 0 days): 7.8 µg/mL (≈ 56.5 µM)
MIC ([5]; ATTC49775, 0 h, storage temp. −80 °C, storage period 0 days): 7.8 µg/mL (≈ 56.5 µM)
MIC ([5]; ATTC49775, 125 °C (refrigerator storage, autoclaved 30 minutes before tests), storage period 0 days): 15.6 µg/mL (≈ 113 µM)
MIC ([5]; ATTC49775, 125 °C (refrigerator storage, autoclaved 30 minutes before tests), storage period 19 days): 7.8 µg/mL (≈ 56.5 µM)
MIC ([5]; ATTC49775, 125 °C (refrigerator storage, autoclaved 30 minutes before tests), storage period 31 days): 7.8 µg/mL (≈ 56.5 µM)
MIC ([5]; ATTC49775, 456 h, storage temp. 20-25 °C, storage period 19 days): 15.6 µg/mL (≈ 113 µM)
MIC ([5]; ATTC49775, 456 h, storage temp. 45-65 °C, storage period 19 days): 7.8 µg/mL (≈ 56.5 µM)
SMILES: C[C@@H]1O[C@@H]1P(=O)(O)O [Fosfomycin, fosfomycin]
effectiveness against the tested bacteria after storage [2]: effective
